Data published in ChEMBL document CHEMBL4483862, “Open-source discovery of chemical leads for next-generation chemoprotective antimalarials” (2018).

System: Plasmodium berghei
Assay: Luciferase/luciferin-expressing antifolate-resistant parasites were used to infect a culture of HepG2 cells that were pre-incubated with compounds. Infected hepatocytes emit light due to the luciferase reaction. Assay results are presented as the percent inhibition of light emission compared to control. […]
Format: functional
Settings: sporozoite; for IC90: read-out: LUCIFERASE INFECTION ASSAY - IC90

O=C(NCc1ccco1)/C(=C/c1cccc(C(F)(F)F)c1)c1nc2ccccc2[nH]1
IC50 (FFLUC_HILL_SLOPE 10.6, FFLUC_R_SQUARED 0.24, HEPG2TOX_HILL_SLOPE 4.32, HEPG2TOX_R_SQUARED 0.946, PBLUC_HILL_SLOPE 6.31, PBLUC_R_SQUARED 0.466, read-out: LUCIFERASE INFECTION ASSAY - IC50): 5.3 µM | IC90: 7.5 µM

O=C(NCC(c1ccco1)N1CCCC1)c1ccc(Cl)c(S(=O)(=O)N2CCc3ccccc32)c1 (configuration not stated)
IC50 (FFLUC_HILL_SLOPE 10.9, FFLUC_R_SQUARED 0.158, HEPG2TOX_HILL_SLOPE 3.24, HEPG2TOX_R_SQUARED 0.613, PBLUC_HILL_SLOPE 5.35, PBLUC_R_SQUARED 0.563, read-out: LUCIFERASE INFECTION ASSAY - IC50): 7.08 µM | IC90: > 10 µM

CC(=O)NC1=C(N(C)C2CCS(=O)(=O)C2)C(=O)c2ccccc2C1=O (configuration not stated)
IC50 (FFLUC_HILL_SLOPE 10.5, FFLUC_R_SQUARED 0.371, PBLUC_HILL_SLOPE 1.29, PBLUC_R_SQUARED 0.482, read-out: LUCIFERASE INFECTION ASSAY - IC50): 5.96 µM | IC90: > 10 µM

CCNC(=O)Cc1ccc(NC(=O)c2csc(Br)c2)cc1
IC50 (FFLUC_HILL_SLOPE 10.6, FFLUC_R_SQUARED 0.0524, read-out: LUCIFERASE INFECTION ASSAY - IC50): > 10 µM | IC90: > 10 µM

N#Cc1ccc(S(=O)(=O)Nc2cc(C(F)(F)F)cc(C(F)(F)F)c2)c(Cl)c1
IC50 (FFLUC_HILL_SLOPE 10.5, FFLUC_R_SQUARED 0.0508, HEPG2TOX_HILL_SLOPE 1.91, HEPG2TOX_R_SQUARED 0.922, PBLUC_HILL_SLOPE 2.28, PBLUC_R_SQUARED 0.661, read-out: LUCIFERASE INFECTION ASSAY - IC50): 2.09 µM | IC90: 5.49 µM

O=C1C=CC(=O)N1c1cc(Cl)ccc1Cl
IC50 (FFLUC_HILL_SLOPE 10.4, FFLUC_R_SQUARED 0.533, read-out: LUCIFERASE INFECTION ASSAY - IC50): > 13.6 µM | IC90: > 13.6 µM

O=S(=O)(Nc1cc(C(F)(F)F)cc(C(F)(F)F)c1)c1cc(C(F)(F)F)cc(C(F)(F)F)c1
IC50 (FFLUC_HILL_SLOPE 10.6, FFLUC_R_SQUARED 0.544, PBLUC_HILL_SLOPE 1.62, PBLUC_R_SQUARED 0.523, read-out: LUCIFERASE INFECTION ASSAY - IC50): 1.2 µM | IC90: 4.66 µM

O=C(Nc1nc2ccccn2c1C(=O)NC1CCCCC1)c1ccccc1Cl
IC50 (FFLUC_HILL_SLOPE 10.6, FFLUC_R_SQUARED 0.389, HEPG2TOX_HILL_SLOPE 7.19, HEPG2TOX_R_SQUARED 0.725, PBLUC_HILL_SLOPE 14.8, PBLUC_R_SQUARED 0.156, read-out: LUCIFERASE INFECTION ASSAY - IC50): 7 µM | IC90: 8.12 µM

C=CCn1c(-c2ccccc2)cs/c1=N\Nc1ccc([N+](=O)[O-])cc1
IC50 (FFLUC_HILL_SLOPE 10.5, FFLUC_R_SQUARED 0.467, read-out: LUCIFERASE INFECTION ASSAY - IC50): > 10 µM | IC90: > 10 µM

CC(Sc1nc2ncccn2n1)C(=O)N1c2ccccc2CC1C (configuration not stated)
IC50 (FFLUC_HILL_SLOPE 10.4, FFLUC_R_SQUARED 0.228, read-out: LUCIFERASE INFECTION ASSAY - IC50): > 10 µM | IC90: > 10 µM

COc1ccc(C(=O)Nc2cc(Cl)ccc2N2CCCCC2)cc1S(=O)(=O)N(C)OC
IC50 (FFLUC_HILL_SLOPE 10.9, FFLUC_R_SQUARED 0.3, PBLUC_HILL_SLOPE 12.4, PBLUC_R_SQUARED 0.0122, read-out: LUCIFERASE INFECTION ASSAY - IC50): > 10 µM | IC90: > 10 µM

CC1C(=O)N(CC(O)COCc2ccccc2Cl)C(=O)N1c1ccccc1 (configuration not stated)
IC50 (FFLUC_HILL_SLOPE 10.9, FFLUC_R_SQUARED 0.0106, read-out: LUCIFERASE INFECTION ASSAY - IC50): > 10 µM | IC90: > 10 µM

CCc1nn2c(=O)c(CC)c(C)[nH]c2c1-c1ccc(Cl)cc1
IC50 (FFLUC_HILL_SLOPE 10.5, FFLUC_R_SQUARED 0.352, PBLUC_HILL_SLOPE 13.5, PBLUC_R_SQUARED 0.435, read-out: LUCIFERASE INFECTION ASSAY - IC50): 8.92 µM | IC90: > 10.4 µM

CC(C)(C)c1nnc2sc(SCC(=O)NC(c3ccccc3)c3ccccc3)nn2c1=O
IC50 (FFLUC_HILL_SLOPE 10.4, FFLUC_R_SQUARED 0.278, PBLUC_HILL_SLOPE 1.88, PBLUC_R_SQUARED 0.683, read-out: LUCIFERASE INFECTION ASSAY - IC50): 4.26 µM | IC90: > 10 µM

O=C(Nc1ccccc1C(=O)OCC(=O)N1c2ccccc2Sc2ccccc21)c1ccco1
IC50 (FFLUC_HILL_SLOPE 10.6, FFLUC_R_SQUARED 0.388, PBLUC_HILL_SLOPE 2.08, PBLUC_R_SQUARED 0.607, read-out: LUCIFERASE INFECTION ASSAY - IC50): 7.58 µM | IC90: > 10 µM

Cn1c(NCc2ccccc2)nc2cnc(Nc3ccc(OC(F)(F)F)cc3)cc21
IC50 (FFLUC_HILL_SLOPE 10.9, FFLUC_R_SQUARED 0.015, PBLUC_HILL_SLOPE 2.54, PBLUC_R_SQUARED 0.635, read-out: LUCIFERASE INFECTION ASSAY - IC50): 1.52 µM | IC90: 3.61 µM

CCCCNC(=O)c1c(NC(=O)c2ccc(F)cc2F)nc2ccc(C)cn12
IC50 (FFLUC_HILL_SLOPE 10.6, FFLUC_R_SQUARED 0.36, HEPG2TOX_HILL_SLOPE 2.09, HEPG2TOX_R_SQUARED 0.949, PBLUC_HILL_SLOPE 14.8, PBLUC_R_SQUARED 0.468, read-out: LUCIFERASE INFECTION ASSAY - IC50): 2.6 µM | IC90: 3.01 µM

CC(C)(C)c1cc(C(=O)Nc2cccc(Cl)c2)n(Cc2ccc(Cl)cc2Cl)n1
IC50 (FFLUC_HILL_SLOPE 10.5, FFLUC_R_SQUARED 0.365, read-out: LUCIFERASE INFECTION ASSAY - IC50): > 7.56 µM | IC90: > 7.56 µM

O=C(CSCCS(=O)(=O)c1ccc(Cl)cc1)Nc1cc(C(F)(F)F)cc(C(F)(F)F)c1
IC50 (FFLUC_HILL_SLOPE 10.6, FFLUC_R_SQUARED 0.485, read-out: LUCIFERASE INFECTION ASSAY - IC50): > 6.52 µM | IC90: > 6.52 µM

O=c1c2ccccc2[nH]c2ccc(Oc3ncnc4ccsc34)cc12
IC50 (FFLUC_HILL_SLOPE 10.4, FFLUC_R_SQUARED 0.538, PBLUC_HILL_SLOPE 5.72, PBLUC_R_SQUARED 0.733, read-out: LUCIFERASE INFECTION ASSAY - IC50): 0.38 µM | IC90: 0.558 µM

O=C(Nc1ncc(Cc2cccc(Cl)c2Cl)s1)c1ccc(-n2cncn2)nc1
IC50 (FFLUC_HILL_SLOPE 10.4, FFLUC_R_SQUARED 0.281, HEPG2TOX_HILL_SLOPE 2.29, HEPG2TOX_R_SQUARED 0.935, PBLUC_HILL_SLOPE 1.7, PBLUC_R_SQUARED 0.542, read-out: LUCIFERASE INFECTION ASSAY - IC50): 3.51 µM | IC90: > 10 µM

CCCNC(=O)c1c(NC(=O)c2cc(F)ccc2F)nc2ccc(C)cn12
IC50 (FFLUC_HILL_SLOPE 10.5, FFLUC_R_SQUARED 0.751, HEPG2TOX_HILL_SLOPE 1.41, HEPG2TOX_R_SQUARED 0.982, PBLUC_HILL_SLOPE 15, PBLUC_R_SQUARED 0.726, read-out: LUCIFERASE INFECTION ASSAY - IC50): 1.02 µM | IC90: 1.18 µM

CCOC(=O)c1sc(SCc2ccccc2)c2c1CC(c1ccccc1)CC2=O (configuration not stated)
IC50 (FFLUC_HILL_SLOPE 10.5, FFLUC_R_SQUARED 0.686, PBLUC_HILL_SLOPE 0.804, PBLUC_R_SQUARED 0.242, read-out: LUCIFERASE INFECTION ASSAY - IC50): > 7.81 µM | IC90: > 7.81 µM

COc1cccc(OC)c1C(=O)Nc1cc2c(c([N+](=O)[O-])c1C)C(C)(C)CC2(C)C
IC50 (FFLUC_HILL_SLOPE 10.9, FFLUC_R_SQUARED 0.163, HEPG2TOX_HILL_SLOPE 1.05, HEPG2TOX_R_SQUARED 0.731, PBLUC_HILL_SLOPE 1.82, PBLUC_R_SQUARED 0.597, read-out: LUCIFERASE INFECTION ASSAY - IC50): 2.09 µM | IC90: 6.98 µM

FC(F)(F)c1ccccc1N/N=C/c1ccc(OCc2ccccc2)c(OCc2ccccc2)c1
IC50 (FFLUC_HILL_SLOPE 10.4, FFLUC_R_SQUARED 0.371, read-out: LUCIFERASE INFECTION ASSAY - IC50): > 10 µM | IC90: > 10 µM

Cc1ccc(C(=O)C(c2ccc(C)cc2)N2C(=O)NC(C)(c3ccccc3)C2=O)cc1 (configuration not stated)
IC50 (FFLUC_HILL_SLOPE 10.4, FFLUC_R_SQUARED 0.468, read-out: LUCIFERASE INFECTION ASSAY - IC50): > 10 µM | IC90: > 10 µM

O=C1C(=O)N(CCc2ccccc2)c2c1cccc2C(F)(F)F
IC50 (FFLUC_HILL_SLOPE 10.6, FFLUC_R_SQUARED 0.162, HEPG2TOX_HILL_SLOPE 9.24, HEPG2TOX_R_SQUARED 0.771, PBLUC_HILL_SLOPE 5.11, PBLUC_R_SQUARED 0.647, read-out: LUCIFERASE INFECTION ASSAY - IC50): 3.88 µM | IC90: 5.96 µM

COCCOc1ccc(C(F)(F)F)cc1NC(=O)COC(=O)c1ccc2[nH]c3c(c2c1)CCCC3
IC50 (FFLUC_HILL_SLOPE 10.4, FFLUC_R_SQUARED 0.848, HEPG2TOX_HILL_SLOPE 1.66, HEPG2TOX_R_SQUARED 0.868, PBLUC_HILL_SLOPE 2.48, PBLUC_R_SQUARED 0.755, read-out: LUCIFERASE INFECTION ASSAY - IC50): 4.17 µM | IC90: > 10 µM

c1ccc(CSc2ncc(-c3nnnn3-c3ccccc3)c(-c3ccccc3)n2)cc1
IC50 (FFLUC_HILL_SLOPE 10.9, FFLUC_R_SQUARED 0.438, read-out: LUCIFERASE INFECTION ASSAY - IC50): > 7.81 µM | IC90: > 7.81 µM

c1ccc(C2(c3ccccc3)CC2(c2ccccc2)c2ccccc2)cc1
IC50 (FFLUC_HILL_SLOPE 10.4, FFLUC_R_SQUARED 0.239, PBLUC_HILL_SLOPE 23.3, PBLUC_R_SQUARED 0.151, read-out: LUCIFERASE INFECTION ASSAY - IC50): 8.16 µM | IC90: 8.97 µM

CC1CCc2[nH]c3ccc(C(=O)Nc4ccccc4N4CCCCC4)cc3c2C1 (configuration not stated)
IC50 (FFLUC_HILL_SLOPE 10.4, FFLUC_R_SQUARED 0.246, PBLUC_HILL_SLOPE 2.51, PBLUC_R_SQUARED 0.903, read-out: LUCIFERASE INFECTION ASSAY - IC50): 0.341 µM | IC90: 0.818 µM
